These results are taken from patent US20260217735A1, “HETEROCYCLES AND USES THEREOF” (Kumquat Biosciences Inc., priority 2023, published 2026).

The target in one test is T1, KRAS G12D (Homo sapiens, UniProt P01116, G12D).
T1 construct: made in house; host or cells: E. coli, e.g. BL21 (DE3)
The test can be described thus: HTRF assay, KRAS G12D interaction with SOS1. Format: biochemical. To be noted: bins <500 nM / 500 nM to 1000 nM, read-out: Inhibition of KRAS G12D (IC50). The source says: (§1) This assay can be also used to assess a selective inhibition or reduction of signaling output of a mutant Ras protein relative to a wildtype, or relative to a different mutant Ras protein. For example, the equilibrium interaction of wildtype KRAS or K-Ras mutant (e.g., wildtype or a mutant thereof) with SOS1 (e.g., hSOS1) can be assessed as a proxy or an indication for the ability of a subject compound to bind and inhibit Ras protein. The HTRF assay detects from (i) a fluorescence resonance energy transfer (FRET) donor (e.g., antiGST-Europium) that is bound to GST-tagged K-Ras mutant to (ii) a FRET acceptor (e.g., anti-6His-XL665) bound to a His-tagged hSOSL1.
(§2) The assay buffer can contain ~5 mM HEPES pH 7.4, ~150 mM NaCl, ~1 mM DTT, 0.05% BSA and 0.0025% (v/v) Igepal. A Ras working solution is prepared in an assay buffer containing typically a suitable amount of the protein construct (e.g., GST-tagged K-Ras mutant) and the FRET donor (e.g., antiGST-Eu(K) from Cisbio, France). A SOS1 working solution is prepared in an assay buffer containing suitable amount of the protein construct (e.g., His-hSOS1) and the FRET acceptor (e.g., anti-6His-XL665 from Cisbio, France). A suitable amount of the protein construct will depend on the range of activity or range of IC50 values being detected or under investigation. For detecting an IC50 within a range of 500 nM, the protein constructs of the same range of molarity can be utilized.
(§3) A fixed volume of DMSO with or without test compound is transferred into a 384-well plate. Ras working solution is added to all wells of the test plate. SOS1 working solution is added to all wells except for those that are subsequently filled with inhibitor control solution. Upon incubation for about 10 minutes or longer, the fluorescence is measured with a M1000Pro plate reader (Tecan) using HTRF detection (excitation 337 nm, emission 1: 620 nm, emission 2: 665 nm). Compounds are tested in duplicate at different concentrations (for example, 10 μM, 2.5 μM, 0.63 μM, 0.16 μM, 0.04 μM, 0.01 μM test compound). The ratiometric data (i.e., emission 2 divided by emission 1) is used to calculate IC50 values against Ras using GraphPad Prism (GraphPad software). Signaling output measured in terms of IC50 values can be obtained and a ratio of IC50 against one mutant relative to another mutant can be calculated. For instance, a selective reduction of K-Ras G12S signaling output can be evidenced by a ratio greater than one. In particular, a selective reduction of K-Ras G12S signaling relative to K-Ras WT signaling is evidenced if the ratio of IC50 (against K-Ras WT) to IC50 (against K-Ras G12S) is greater than 1.
A general note: Time-resolved FRET reads energy transfer from a long-lived donor to a nearby acceptor.

A further test deals with T2, KRAS WT (Homo sapiens, UniProt P01116).
T2 construct: made in house; host or cells: E. coli, e.g. BL21 (DE3)
T2 sequence (P01116 1-188 isoform P01116-2): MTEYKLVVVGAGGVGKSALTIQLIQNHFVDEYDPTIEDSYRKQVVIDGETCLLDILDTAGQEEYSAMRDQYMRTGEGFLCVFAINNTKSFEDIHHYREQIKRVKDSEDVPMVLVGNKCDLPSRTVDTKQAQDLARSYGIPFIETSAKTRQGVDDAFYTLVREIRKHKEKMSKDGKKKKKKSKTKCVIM
The test can be described thus: HTRF assay, wildtype KRAS interaction with SOS1. Format: biochemical. To be noted: bins <500 nM / 500 nM to 1000 nM, read-out: Inhibition of KRAS WT (IC50).
Excerpt: as §1, §2, §3

The target in a further test is T3, KRAS G12V (Homo sapiens, UniProt P01116, G12V).
T3 construct: made in house; host or cells: E. coli, e.g. BL21 (DE3)
T3 sequence (P01116 1-188 isoform P01116-2 G12V): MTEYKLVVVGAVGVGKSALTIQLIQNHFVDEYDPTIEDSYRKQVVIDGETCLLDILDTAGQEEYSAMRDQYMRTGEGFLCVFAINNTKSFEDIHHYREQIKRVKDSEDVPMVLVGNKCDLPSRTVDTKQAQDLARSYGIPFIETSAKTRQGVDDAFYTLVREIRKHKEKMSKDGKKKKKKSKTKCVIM
The test can be described thus: HTRF assay, KRAS G12V interaction with SOS1. To be noted: bins <500 nM / 500 nM to 1000 nM, read-out: Inhibition of KRAS G12V (IC50). It is filed as biochemical.
Excerpt: as §1, §2, §3

The next test concerns the target T4, KRAS G12S (Homo sapiens, UniProt P01116, G12S).
T4 construct: made in house; host or cells: E. coli, e.g. BL21 (DE3)
The test can be described thus: HTRF assay, KRAS G12S interaction with SOS1. It is filed as biochemical. To be noted: bins <500 nM / 500 nM to 1000 nM, read-out: Inhibition of KRAS G12S (IC50).
Excerpt: as §1, §2, §3

The test system of the next test is MiaPaca2 cells. The test can be described thus: Ras cellular assay, growth of cells with K-Ras G12C mutation. It is filed as cell-based. To be noted: Homo sapiens, MIA PaCa-2; cell proliferation assay; bins ≤500 nM / >500 nM; read-out: Inhibition of MiaPaca2 Cells (IC50). As to the method: For example, this assay can be also used to assess selective growth inhibition of a mutant Ras protein relative to a wildtype or different mutant Ras protein.
MIA PaCa-2 (ATCC CRL-1420) and NCI-H1792 (ATCC CRL-5895) cell lines comprise a G12C mutation and can be used to assess Ras cellular signaling in vitro, e.g., in response to an inhibitor compound of the present disclosure. […] MIA PaCa-2 culture medium is prepared with DMEM/Ham's F12 (e.g., with stable glutamine, 10% FCS, and 2.5% horse serum. NCI-H1792 culture medium is prepared with RPMI 1640 (e.g., with stable glutamine) and 10% FCS.
On a first day (e.g., Day 1), Softagar (Select Agar, Invitrogen, 3% in ddH2O autoclaved) is boiled and tempered at 48° C. Appropriate culture medium (i.e., medium) is tempered to 37° C. Agar (3%) is diluted 1:5 in medium (=0.6%) and plated into 96 well plates (Corning, #3904), then incubated at room temperature for agar solidification. A 3% agar is diluted to 0.25% in medium (1:12 dilution) and tempered at 42° C. Cells are trypsinized, counted, and tempered at 37° C. The cells (e.g., MIA PaCa-2 at about 125-150 cells, NCI-H1792 at about 1000 cells) are resuspended in […] 0.25% Agar and plated, followed by incubation at room temperature for agar solidification. The wells are overlaid with […] of the medium. Sister wells in a separate plate are plated for time zero determination. All plates are incubated overnight at 37° C. and 5% CO2.
On a second day (e.g., Day 2), time zero values are measured. A […] volume of Cell Titer 96 Aqueous Solution (Promega) is added to each well and incubated in the dark at 37° C. and 5% CO2. Absorption can be measured at 490 nm and reference wavelength 660 nm. DMSO-prediluted test compounds are added to wells of interest, e.g., with HP Dispenser, to one or more desired concentrations (e.g., a final DMSO concentration of 0.3%).
On a tenth day (e.g., Day 10), absorption by wells treated with the test compounds and control wells are measured with, for example, Cell Titer 96 AQueous and analyzed in comparison to the time zero measurements. The IC50 values are determined using the four parameter fit. The resulting IC50 value is a measurement of the ability of the test compound to reduce cell growth of Ras-driven cells (e.g., tumor cell lines) in vitro and/or in vivo.

T4 sequence (P01116 1-188 isoform P01116-2 G12S): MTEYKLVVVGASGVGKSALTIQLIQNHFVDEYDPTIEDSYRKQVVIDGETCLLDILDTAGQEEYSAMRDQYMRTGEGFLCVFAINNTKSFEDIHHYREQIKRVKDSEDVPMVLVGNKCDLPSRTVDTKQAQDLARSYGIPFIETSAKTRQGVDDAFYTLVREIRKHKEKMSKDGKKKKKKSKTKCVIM
T1 sequence (P01116 1-188 isoform P01116-2 G12D): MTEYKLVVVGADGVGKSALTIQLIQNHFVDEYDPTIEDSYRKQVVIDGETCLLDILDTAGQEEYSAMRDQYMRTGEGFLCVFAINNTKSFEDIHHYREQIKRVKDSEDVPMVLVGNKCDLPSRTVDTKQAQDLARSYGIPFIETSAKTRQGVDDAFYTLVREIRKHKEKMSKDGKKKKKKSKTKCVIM

One may read the IC50 as the point on the concentration scale where inhibition reaches its midpoint. Turning to `Cc1cn(C(=O)N2CC[C@@]23CCN(c2nc(OC[C@@]45CCCN4C[C@H](F)C5)nc4c(F)c(-c5ccc(F)c6sc(N)c(C#N)c56)c(Cl)cc24)C3)cn1` (atropisomer, axis not shown; (aS)) [Compound 107, (R)-2-amino-4-(6-chloro-8-fluoro-2-(((2R,7aS)-2-fluorotetrahydro-1H-pyrrolizin-7a(5H)-yl)methoxy)-4-((R)-1-(4-methyl-1H-imidazole-1-carbonyl)-1,6-diazaspiro[3.4]octan-6-yl)quinazolin-7-yl)-7-fluorobenzo[b]thiophene-3-carbonitrile], the IC50 at KRAS G12D was less than 500 nM; at KRAS WT it was less than 500 nM; at KRAS G12V it was less than 500 nM; on KRAS G12S, less than 500 nM; in the test on MiaPaca2 cells, not above 500 nM.
Consider `CCN(c1nc(OC[C@@]23CCCN2C[C@H](F)C3)nc2c(F)c(-c3ccc(F)c4sc(N)c(C#N)c34)c(C(F)(F)F)cc12)[C@@H]1CCN(C(=O)n2cc(C)nc2C)[C@@H]1C` (atropisomer, axis not shown; (aS)) [Compound 114, (S)-2-amino-4-(4-(((2R,3R)-1-(2,4-dimethyl-1H-imidazole-1-carbonyl)-2-methylpyrrolidin-3-yl)(ethyl)amino)-8-fluoro-2-(((2R,7aS)-2-fluorotetrahydro-1H-pyrrolizin-7a(5H)-yl)methoxy)-6-(trifluoromethyl)quinazolin-7-yl)-7-fluorobenzo[b]thiophene-3-carbonitrile], for which the concentration for half-maximal inhibition (IC50) at KRAS G12D is less than 500 nM; at KRAS WT, less than 500 nM; on KRAS G12V it was less than 500 nM; on KRAS G12S it was less than 500 nM; with MiaPaca2 cells, not above 500 nM.
Take `CC[C@H]1N(C(=O)n2cc(C#N)nc2C)C[C@]12CCCCN(c1nc(OC[C@@]34CCCN3C[C@H](F)C4)nc3c(F)c(-c4ccc(F)c5sc(N)c(C#N)c45)c(Cl)cc13)C2` (atropisomer, axis not shown; (aS)) [Compound 117, 1-((1R,4R)-6-(7-((R)-2-amino-3-cyano-7-fluorobenzo[b]thiophen-4-yl)-6-chloro-8-fluoro-2-(((2R,7aS)-2-fluorotetrahydro-1H-pyrrolizin-7a(5H)-yl)methoxy)quinazolin-4-yl)-1-ethyl-2,6-diazaspiro[3.6]decane-2-carbonyl)-2-methyl-1H-imidazole-4-carbonitrile]: the half-inhibitory concentration (IC50) on KRAS G12D is less than 500 nM; on KRAS WT, less than 500 nM; on KRAS G12V, less than 500 nM; at KRAS G12S it was less than 500 nM; with MiaPaca2 cells it was not above 500 nM.
Consider `CC1CC(N(C)c2nc(OC[C@@]34CCCN3C[C@H](F)C4)nc3c(F)c(-c4ccc(F)c5sc(N)c(C#N)c45)c(Cl)cc23)CN1C(=O)n1cnc(F)n1` (mixture of isomers) [Compound 150, 2-amino-4-(6-chloro-8-fluoro-4-((1-(3-fluoro-1H-1,2,4-triazole-1-carbonyl)-5-methylpyrrolidin-3-yl)(methyl)amino)-2-(((2R,7aS)-2-fluorotetrahydro-1H-pyrrolizin-7a(5H)-yl)methoxy)quinazolin-7-yl)-7-fluorobenzo[b]thiophene-3-carbonitrile], for which, in the test with MiaPaca2 cells, the IC50 was not above 500 nM.
On the same count and under the same terms, then `CN(c1nc(OC[C@@]23CCCN2C[C@H](F)C3)nc2c(F)c(-c3ccc(F)c4sc(N)c(C#N)c34)c(Cl)cc12)C1CN(C(=O)n2ccnc2)CC1F` (single isomer, unassigned) [Compound 189], with not above 500 nM; and `CCN(c1nc(OCC23CCCN2C(COc2cc(C(F)(F)F)ncn2)CC3)nc2c(F)c(-c3ccc(F)c4sc(N)c(C#N)c34)c(Cl)cc12)[C@@H]1CCN(C(=O)n2cc(C)nc2C)[C@@H]1C` (single isomer, unassigned) [Compound 217], with not above 500 nM.
As for `CC1CC(N(C)c2nc(OC[C@@]34CCCN3C[C@H](F)C4)nc3c(F)c(-c4ccc(F)c5sc(N)c(C#N)c45)c(Cl)cc23)CCN1C(=O)n1ccnc1` (stereo partly drawn) [Compound 209, 4-(4-((1-(1H-imidazole-1-carbonyl)-2-methylpiperidin-4-yl)(methyl)amino)-6-chloro-8-fluoro-2-(((2R,7aS)-2-fluorotetrahydro-1H-pyrrolizin-7a(5H)-yl)methoxy)quinazolin-7-yl)-2-amino-7-fluorobenzo[b]thiophene-3-carbonitrile], the 50% inhibitory concentration (IC50) at KRAS G12D is less than 500 nM; in the test with MiaPaca2 cells, not above 500 nM.
With `C=C1CN2CC(=C)CC2(COc2nc(N(CC)[C@@H]3CCN(C(=O)n4cnc(Cl)n4)[C@@H]3C)c3cc(C(F)(F)F)c(-c4ccc(F)c5sc(N)c(C#N)c45)c(F)c3n2)C1` [Compound 219, 2-amino-4-(4-(((2R,3R)-1-(3-chloro-1H-1,2,4-triazole-1-carbonyl)-2-methylpyrrolidin-3-yl)(ethyl)amino)-2-((2,6-dimethylenetetrahydro-1H-pyrrolizin-7a(5H)-yl)methoxy)-8-fluoro-6-(trifluoromethyl)quinazolin-7-yl)-7-fluorobenzo[b]thiophene-3-carbonitrile], the concentration for half-maximal inhibition (IC50) at KRAS G12D, at KRAS WT, at KRAS G12V and at KRAS G12S was less than 500 nM in each case.
